Measured values: US12466804B2 (BRISTOL-MYERS SQUIBB COMPANY, priority 2019, dated 2025)

Biological target: T1, human LPA1 (Homo sapiens, UniProt Q92633)
T1 construct: expressed in transfected cells; host or cells: Chinese hamster ovary (CHO) cells
Assay: LPA1 functional antagonist assay (LPA-induced calcium flux)
Assay type: cell-based
Conditions: CHO cells overexpressing human LPA1; calcium flux induced by 10 nM LPA; read-out: hLPA1 IC50
Experimental: The effectiveness of compounds of the present invention as LPA1 inhibitors can be determined in an LPA1 functional antagonist assay as follows:
The cells were then equilibrated to room temperature for 30 minutes before the assay. […] IC50 values were determined by fitting data to a 4-parameter logistic equation (GraphPad Prism, San Diego CA).

T1 sequence (Q92633 whole entry): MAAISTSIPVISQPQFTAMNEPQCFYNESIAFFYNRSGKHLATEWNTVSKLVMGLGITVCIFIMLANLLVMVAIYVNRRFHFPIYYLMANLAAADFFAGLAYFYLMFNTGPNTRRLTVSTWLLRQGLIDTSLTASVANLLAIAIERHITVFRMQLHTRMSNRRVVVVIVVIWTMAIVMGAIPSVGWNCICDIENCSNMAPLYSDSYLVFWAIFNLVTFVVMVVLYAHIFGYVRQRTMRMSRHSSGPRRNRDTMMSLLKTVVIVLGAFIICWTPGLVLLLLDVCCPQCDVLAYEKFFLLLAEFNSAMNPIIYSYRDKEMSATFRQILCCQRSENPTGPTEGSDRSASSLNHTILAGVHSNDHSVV

SMILES	IC50
CCc1ccnc(OCc2c(-c3ccc(OC[C@@H]4CC[C@H]4C(=O)O)c(C)n3)nnn2C)n1 (racemic) [Example 14, (±)-(1R,2R)-2-(((6-(5-(((4-ethylpyrimidin-2-yl)oxy)methyl)-1-methyl-1H-1,2,3-triazol-4-yl)-2-methylpyridin-3-yl)oxy)methyl)cyclobutane-1-carboxylic acid]	382 nM
Cc1nc(-c2nnn(C)c2CNc2nccc(Oc3ccccc3)n2)ccc1OC[C@@H]1CC[C@H]1C(=O)O (racemic) [Example 22, (±)-(1R,2R)-2-(((2-methyl-6-(1-methyl-5-(((4-phenoxypyrimidin-2-yl)amino)methyl)-1H-1,2,3-triazol-4-yl)pyridin-3-yl)oxy)methyl)cyclobutane-1-carboxylic acid]	149 nM
CCc1cc(OCc2c(-c3ccc(OC[C@@H]4CC[C@H]4C(=O)O)c(C)n3)nnn2C)ncn1 (racemic) [Example 11, (±)-(1R,2R)-2-(((6-(5-(((6-ethylpyrimidin-4-yl)oxy)methyl)-1-methyl-1H-1,2,3-triazol-4-yl)-2-methylpyridin-3-yl)oxy)methyl)cyclobutane-1-carboxylic acid]	42 nM
CCC(C)Cc1nc(NCc2c(-c3ccc(OCC45CC(C(=O)O)(C4)C5)c(C)n3)nnn2C)no1 (racemic) [Example 56, (±)-3-(((2-methyl-6-(1-methyl-5-(((5-(2-methylbutyl)-1,2,4-oxadiazol-3-yl)amino)methyl)-1H-1,2,3-triazol-4-yl)pyridin-3-yl)oxy)methyl)bicyclo[1.1.1]pentane-1-carboxylic acid]	586 nM
Cc1nc(-c2nnn(C)c2COC(=O)N(C)CC2CCC2)ccc1OCC12CC(C(=O)O)(C1)C2 [Example 52, 3-(((6-(5-((((cyclobutylmethyl)(methyl)carbamoyl)oxy)methyl)-1-methyl-1H-1,2,3-triazol-4-yl)-2-methylpyridin-3-yl)oxy)methyl)bicyclo[1.1.1]pentane-1-carboxylic acid]	372 nM
CCCN(C)C(=O)OCc1c(-c2ccc(OC[C@@H]3CC[C@H]3C(=O)O)c(C)n2)nnn1C (racemic) [Example 46]	275 nM
Cc1nc(-c2nnn(C)c2CNc2nccc(C(C)C)n2)ccc1OC[C@@H]1CC[C@H]1C(=O)O (racemic) [Example 23, (±)-(1R,2R)-2-(((6-(5-(((4-isopropyl-pyrimidin-2-yl)amino)methyl)-1-methyl-1H-1,2,3-triazol-4-yl)-2-methylpyridin-3-yl)oxy)methyl)cyclobutane-1-carboxylic acid]	117 nM
Cc1noc(-c2ccc(OC[C@@H]3CC[C@H]3C(=O)O)cn2)c1CNc1nccc(-c2ccccn2)n1 (single isomer, unassigned) [Example 3]	7 nM
Cc1nc(-c2nnn(C)c2CNC(=O)OCC(C)C)ccc1OC[C@@H]1CC[C@H]1C(=O)O (racemic) [Example 41, (±)-(1R,2R)-2-(((6-(5-(((isobutoxy-carbonyl)amino)methyl)-1-methyl-1H-1,2,3-triazol-4-yl)-2-methy-lpyridin-3-yl)oxy)methyl)cyclobutanecarboxylic acid]	3750 nM
CCc1cc(OCc2c(-c3ccc(OC[C@H]4CC[C@@H]4C(=O)O)c(C)n3)nnn2C)ncn1 (single isomer, unassigned) [Example 13]	28 nM
Cc1nc(-c2nnn(C)c2NC(=O)OCC(C)C)ccc1OC[C@@H]1CC[C@H]1C(=O)O (racemic) [Example 34, (±)-(1R,2R)-2-(((6-(5-((Isobutoxycarbonyl)amino)-1-methyl-1H-1,2,3-triazol-4-yl)-2-methylpyridin-3-yl)oxy)methyl)cyclobutane-1-carboxylic acid]	1190 nM
Cc1nc(-c2nnn(C)c2COC(=O)N(C)CC2CCC2)ccc1OC[C@H]1CC[C@@H]1C(=O)O (single isomer, unassigned) [Example 8]	6 nM
Cn1nnc(-c2ccc(OC[C@H]3CC[C@@H]3C(=O)O)cn2)c1CNc1nccc(-c2ccccn2)n1 (single isomer, unassigned) [Example 29]	186 nM
Cn1nnc(-c2ccc(OC[C@@H]3CC[C@H]3C(=O)O)cn2)c1CNc1nccc(-c2ccccn2)n1 (single isomer, unassigned) [Example 28]	67 nM
Cc1nc(-c2onc(C)c2COC(=O)N(C)C2CCCC2)ccc1OCC12CCC(C(=O)O)(C1)C2 [Example 58, 4-(((6-(4-(((cyclopentyl(methyl)carbamoyl)oxy)methyl)-3-methylisoxazol-5-yl)-2-methylpyridin-3-yl)oxy)methyl)bicyclo[2.1.1]hexane-1-carboxylic acid]	22 nM
Cn1nnc(-c2ccc(OC[C@@H]3CC[C@H]3C(=O)O)cn2)c1CNc1nccc(-c2ccccn2)n1 (racemic) [Example 27, (±)-(1R,2R)-2-(((6-(1-methyl-5-(((4-(pyridin-2-yl)pyrimidin-2-yl)amino)methyl)-1H-1,2,3-triazol-4-yl)pyridin-3-yl)oxy)methyl)cyclobutane-1-carboxylic acid]	49 nM
Cc1noc(-c2ccc(OCC34CC(C(=O)O)(C3)C4)cc2)c1COC(=O)N(C)C1CCCC1 [Example 53, 3-((4-(4-(((cyclopentyl(methyl)carbamoyl)oxy)methyl)-3-methylisoxazol-5-yl)phenoxy)methyl)bicyclo[1.1.1]pentane-1-carboxylic acid]	604 nM
Cc1nc(-c2nnn(C)c2Cn2nnnc2CC2CC2)ccc1OC[C@@H]1CC[C@H]1C(=O)O (racemic) [Example 37, (±)-(1R,2R)-2-(((6-(5-((5-(Cyclopropylmethyl)-1H-tetrazol-1-yl)methyl)-1-methyl-1H-1,2,3-triazol-4-yl)-2-methylpyridin-3-yl)oxy)methyl)cyclobutane-1-carboxylic acid]	267 nM
Cc1noc(-c2ccc(OC[C@H]3CC[C@@H]3C(=O)O)cn2)c1CNc1nccc(-c2ccccn2)n1 (single isomer, unassigned) [Example 4]	14 nM
Cc1nc(-c2nnn(C)c2CNC(=O)OCC(C)CC(F)(F)F)ccc1OC[C@@H]1CC[C@H]1C(=O)O (mixture of isomers) [Example 44, (±)-(1R,2R)-2-(((2-methyl-6-(1-methyl-5-((((4,4,4-trifluoro-2-methylbutoxy)carbonyl)amino)methyl)-1H-1,2,3-triazol-4-yl)pyridin-3-yl)oxy)methyl)cyclobutane carboxylic acid]	103 nM
Cc1nc(-c2nnn(C)c2COc2noc(C(C)C)n2)ccc1OC[C@@H]1CC[C@H]1C(=O)O (racemic) [Example 16, (±)-(1R,2R)-2-(((6-(5-(((5-isopropyl-1,2,4-oxadiazol-3-yl)oxy)methyl)-1-methyl-1H-1,2,3-triazol-4-yl)-2-methylpyridin-3-yl)oxy)methyl)cyclobutane-1-carboxylic acid]	25 nM
Cc1nc(-c2nnn(C)c2COC(=O)N(C)CC(C)C)ccc1OC[C@@H]1CC[C@H]1C(=O)O (racemic) [Example 49, (±)-(1R,2R)-2-(((6-(5-(((isobutyl(methyl)carbamoyl)oxy)methyl)-1-methyl-1H-1,2,3-triazol-4-yl)-2-methylpyridin-3-yl)oxy)methyl)cyclobutanecarboxylic acid]	232 nM
Cc1nc(-c2nnn(C)c2CNc2noc(CC3CC3)n2)ccc1OC[C@H]1CC[C@@H]1C(=O)O (racemic) [Example 60, (±)-(1S,2S)-2-(((6-(5-(((5-(Cyclopropylmethyl)-1,2,4-oxadiazol-3-yl)amino)methyl)-1-methyl-1H-1,2,3-triazol-4-yl)-2-methylpyridin-3-yl)oxy)methyl) cyclobutane-1-carboxylic acid]	1160 nM
CN(C(=O)OCc1c(-c2ccc(OCC34CC(C(=O)O)(C3)C4)cn2)nnn1C)C1CCCC1 [Example 51, 3-(((6-(5-(((cyclopentyl(methyl)carbamoyl)oxy)methyl)-1-methyl-1H-1,2,3-triazol-4-yl)pyridin-3-yl)oxy)methyl)bicyclo[1.1.1]pentane-1-carboxylic acid]	417 nM
Cc1nc(-c2nnn(C)c2COc2cc(OC3CC3)ncn2)ccc1OC[C@@H]1CC[C@H]1C(=O)O (racemic) [Example 17, (±)-(1R,2R)-2-(((6-(5-(((6-cyclopropoxy-pyrimidin-4-yl)oxy)methyl)-1-methyl-1H-1,2,3-triazol-4-yl)-2-methylpyridin-3-yl)oxy)methyl)cyclobutane-1-carboxylic acid]	66 nM
Cc1nc(-c2nnn(C)c2CNc2ncc(-c3ccccn3)o2)ccc1OC[C@@H]1CC[C@H]1C(=O)O (racemic) [Example 40, (±)-(1R,2R)-2-(((2-methyl-6-(1-methyl-5-(((5-(pyridin-2-yl)oxazol-2-yl)amino)methyl)-1H-1,2,3-triazol-4-yl)pyridin-3-yl)oxy)methyl)cyclobutanecarboxylic acid]	520 nM
Cc1nc(-c2nnn(C)c2COC(=O)N(C)CC2CCC2)ccc1OC[C@@H]1CC[C@H]1C(=O)O (single isomer, unassigned) [Example 7]	26 nM
Cc1nc(-c2nnn(C)c2CNc2nccc(C(C)C)n2)ccc1OC[C@H]1CC[C@@H]1C(=O)O (single isomer, unassigned) [Example 25]	51 nM
Cc1nc(-c2nnn(C)c2COC(=O)N(C)CC2CCC2)ccc1O[C@H]1C[C@@H](C(=O)O)C1 [Example 10, cis-3-((6-(5-((((cyclobutylmethyl)(methyl)carbamoyl)oxy)methyl)-1-methyl-1H-1,2,3-triazol-4-yl)-2-methylpyridin-3-yl)oxy)cyclobutane-1-carboxylic acid]	789 nM
Cc1nc(-c2nnn(C)c2COC(=O)N(C)C2CCC2)ccc1OC[C@@H]1CC[C@H]1C(=O)O (racemic) [Example 48, (±)-(1R,2R)-2-(((6-(5-(((cyclobutyl(methyl)carbamoyl)oxy)methyl)-1-methyl-1H-1,2,3-triazol-4-yl)-2-methylpyridin-3-yl)oxy)methyl)cyclobutanecarboxylic acid]	72 nM
